Measured values from the NIST ThermoML archive (doi:10.1016/j.jct.2008.10.016).

Legend:
[1] = Drop volume
[2] = xn = mol fraction of the nth substance listed; details: Drop volume

CCCCCl [1-chlorobutane]
[1]
Details | surface tension liquid-gas [mN/m]
283.15 K | 24.73
288.15 K | 24.24
293.15 K | 23.64
298.15 K | 23.29
303.15 K | 22.62
308.15 K | 22.03
313.15 K | 21.53

CCCCCl [1-chlorobutane] + CCCCCC
surface tension liquid-gas [mN/m], [2]
Details | 283.15 K | 288.15 K | 293.15 K | 298.15 K | 303.15 K | 308.15 K | 313.15 K
x2 = 0.0493 | 24.17 | 23.68 | 23.11 | 22.74 | 22.08 | 21.5 | 21.04
x2 = 0.1016 | 23.7 | 23.21 | 22.63 | 22.27 | 21.62 | 21.03 | 20.59
x2 = 0.2048 | 22.96 | 22.46 | 21.88 | 21.52 | 20.89 | 20.28 | 19.84
x2 = 0.3038 | 22.32 | 21.83 | 21.28 | 20.93 | 20.32 | 19.69 | 19.28
x2 = 0.3967 | 21.82 | 21.32 | 20.79 | 20.43 | 19.83 | 19.18 | 18.79
x2 = 0.5015 | 21.29 | 20.78 | 20.25 | 19.89 | 19.31 | 18.64 | 18.27
x2 = 0.6086 | 20.85 | 20.31 | 19.77 | 19.39 | 18.82 | 18.14 | 17.81
x2 = 0.7097 | 20.48 | 19.93 | 19.4 | 19 | 18.46 | 17.77 | 17.47
x2 = 0.804 | 20.19 | 19.63 | 19.1 | 18.71 | 18.18 | 17.46 | 17.18
x2 = 0.9021 | 19.91 | 19.35 | 18.84 | 18.43 | 17.91 | 17.16 | 16.89
x2 = 0.9391 | 19.81 | 19.24 | 18.73 | 18.31 | 17.79 | 17.02 | 16.75

CCCCCCl [1-chloropentane]
[1]
Details | surface tension liquid-gas [mN/m]
283.15 K | 26.02
288.15 K | 25.58
293.15 K | 25.02
298.15 K | 24.46
303.15 K | 24.02
308.15 K | 23.51
313.15 K | 23.02

CCCCCCl [1-chloropentane] + CCCCCC
surface tension liquid-gas [mN/m], [2]
Details | 283.15 K | 288.15 K | 293.15 K | 298.15 K | 303.15 K | 308.15 K | 313.15 K
x2 = 0.0482 | 25.44 | 25.02 | 24.53 | 24.02 | 23.59 | 23.11 | 22.64
x2 = 0.1185 | 24.7 | 24.3 | 23.83 | 23.35 | 22.95 | 22.45 | 22.02
x2 = 0.1991 | 24 | 23.59 | 23.09 | 22.64 | 22.24 | 21.71 | 21.3
x2 = 0.308 | 23.2 | 22.76 | 22.25 | 21.78 | 21.37 | 20.8 | 20.41
x2 = 0.3925 | 22.62 | 22.17 | 21.67 | 21.2 | 20.75 | 20.16 | 19.8
x2 = 0.5087 | 21.91 | 21.44 | 20.94 | 20.47 | 20.03 | 19.4 | 19.05
x2 = 0.5953 | 21.41 | 20.94 | 20.47 | 20.02 | 19.56 | 18.91 | 18.56
x2 = 0.7076 | 20.85 | 20.37 | 19.9 | 19.45 | 18.98 | 18.3 | 18
x2 = 0.7889 | 20.47 | 19.98 | 19.5 | 19.04 | 18.56 | 17.88 | 17.58
x2 = 0.9069 | 19.97 | 19.44 | 18.94 | 18.5 | 17.99 | 17.25 | 16.99
x2 = 0.9474 | 19.81 | 19.24 | 18.74 | 18.29 | 17.79 | 17.05 | 16.77

CCCCCC [hexane]
[1]
Details | surface tension liquid-gas [mN/m]
283.15 K | 19.63
288.15 K | 19.04
293.15 K | 18.52
298.15 K | 18.06
303.15 K | 17.53
308.15 K | 16.74
313.15 K | 16.47
